The values below come from publication PMC11858624, “Antioxidant and Tyrosinase-Inhibitory Activities and Biological Bioactivities of Flavonoid Derivatives from Quercus mongolica Pollen” (Molecules, 2025).

pIC50: −log10 of the molar value.

A short description of experiment [1]: DPPH radical scavenging antioxidant assay. Particulars: for pIC50: DPPH radical scavenging, 10 min incubation, PC = positive control ascorbic acid; for DPPH scavenging activity: at a concentration of 100 µM. As to the method:
The antioxidant properties of compounds 1–18 isolated from the pollen of Q. mongolica were assessed through DPPH assay.
The radical scavenging activity of DPPH (Sigma-Aldrich) was hired for the antioxidant activity. For each assay, 10 mM of each compound isolated from the pollen of Q. mongolica (1 µL) was evaluated, followed by 49 µL of MeOH in each well. Subsequently, 50 µL of 0.3 mM DPPH solution (Sigma-Aldrich) was added. The final concentration was tested to 0.1 mM. The mixture was incubated for 10 min, and antioxidant activity was evaluated by measuring UV at 550 nm using a Dynatech MR 500 plate reader. […]

Another experiment concerns the target mushroom tyrosinase (Agaricus bisporus, UniProt C7FF04). Description: Tyrosinase inhibition assay (dopachrome formation, absorbance at 490 nm). Particulars: at a concentration of 100 µM. Format: biochemical. How it is done: Tyrosinase is a crucial enzyme in melanin synthesis, participating as an oxidase in the initial steps of melanin formation.
Evaluation of tyrosinase-inhibitory activity was conducted using mushroom tyrosinase (Sigma-Aldrich). For each test, 10 mM of each compound isolated from the pollen of Q. mongolica (1 µL) was evaluated. A 50 µL portion of 1 mM tyrosine (Sigma-Aldrich) dissolved in phosphate-buffered saline was introduced into each well, followed by a 5 min incubation period. Mushroom tyrosinase was prepared to a final concentration of 0.1 U/mL in phosphate-buffered saline, and 49 µL of the prepared enzyme solution was added to the wells, resulting in a compound concentration of 0.1 mM. The mixture underwent a 15 min incubation, after which the production of dopachrome was evaluated by recording the absorbance at 490 nm using a Dynatech MR 500 plate reader (Dynatech, Charlottesville, VA, USA). […] The percentage inhibition for each sample was determined at concentrations of […]. The IC50 value was calculated as the concentration of the compound required to achieve 50% inhibition of tyrosinase activity.

Chain of mushroom tyrosinase (C7FF04 1-392): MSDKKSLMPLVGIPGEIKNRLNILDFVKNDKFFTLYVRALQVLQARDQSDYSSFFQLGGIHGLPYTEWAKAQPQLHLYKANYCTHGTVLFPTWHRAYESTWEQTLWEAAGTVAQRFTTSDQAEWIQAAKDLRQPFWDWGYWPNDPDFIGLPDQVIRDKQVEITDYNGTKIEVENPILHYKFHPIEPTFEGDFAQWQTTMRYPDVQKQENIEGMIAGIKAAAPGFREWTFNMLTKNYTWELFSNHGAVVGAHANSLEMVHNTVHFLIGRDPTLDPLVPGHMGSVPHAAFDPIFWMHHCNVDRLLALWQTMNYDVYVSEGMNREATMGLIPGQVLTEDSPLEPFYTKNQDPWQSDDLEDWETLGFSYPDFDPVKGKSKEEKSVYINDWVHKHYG
Chain of mushroom tyrosinase (G1K3P4 1-150 partner): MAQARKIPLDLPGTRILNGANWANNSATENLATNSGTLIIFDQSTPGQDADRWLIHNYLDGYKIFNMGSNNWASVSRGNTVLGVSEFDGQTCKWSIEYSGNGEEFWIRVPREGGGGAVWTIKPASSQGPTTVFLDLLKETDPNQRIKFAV

As a reminder, the pIC50 is −log10 of the IC50, conventionally taken in molar units. Read a low pIC50 as a high IC50. Regarding `O=c1c(O[C@@H]2O[C@H](CO)[C@@H](O)[C@H](O)[C@H]2O)c(-c2ccc(O)cc2)oc2cc(O)cc(O)c12` [Compound 7, astragalin], in experiment [1], the pIC50 is less than 4.00.

In experiment [1], `COc1cc(-c2oc3c(OC)c(O)cc(O)c3c(=O)c2OC2OC(CO)C(O)C(O)C2O)ccc1O` (stereo not shown) [Compound 11, limocitrin 3-glucoside] had a negative-log IC50 (pIC50) of less than 4.00.

On to `O=c1c(OC2OC(CO)C(O)C(O)C2OC2OCC(O)C(O)C2O)c(-c2ccc(O)c(O)c2)oc2cc(O)cc(O)c12` (stereo not shown) [Compound 5, quercetin 3-sambubioside], for which, in experiment [1], the pIC50 was 4.74 and the DPPH scavenging activity result was “over 90%”.

In experiment [1], `O=c1cc(-c2ccc(O)cc2)oc2cc(O)cc(O)c12` [Compound 15, apigenin] had a pIC50 of less than 4.00.

`COc1c(O)cc(O)c2c(=O)c(OC3OC(CO)C(O)C(O)C3O)c(-c3ccc(O)cc3)oc12` (stereo not shown) [Compound 10, 8-methoxykaempferol 3-glucoside] gave a pIC50 in experiment [1] of less than 4.00.

`COc1ccc(-c2coc3cc4c(c(O)c3c2=O)C=CC(C)(C)O4)cc1` [Compound 18, 4′-methylalpinumisoflavone]: in experiment [1], the negative logarithm of the IC50 (pIC50) was less than 4.00.

For orientation: inhibition means the relative decrease from the control value, in per cent. A lower inhibition goes with little suppression. Regarding `O=c1cc(-c2ccc(O)c(O)c2)oc2cc(O)cc(O)c12` [Compound 16, luteolin], in experiment [1], the negative-log IC50 (pIC50) is 5.01 and the DPPH scavenging activity result was “over 90%”. On mushroom tyrosinase, this compound yielded an inhibition at 100 µM greater than 50%.

`O=C1O[C@H]([C@@H](O)CO)C(O)=C1O` [ascorbic acid, reference compound] showed a negative-log IC50 (pIC50) in experiment [1] of 4.55.

`COc1cc(-c2oc3cc(O)cc(O)c3c(=O)c2OC2OC(CO)C(O)C(O)C2O)ccc1O` (stereo not shown) [Compound 9, isorhamnetin 3-glucoside] had a negative-log IC50 (pIC50) in experiment [1] of less than 4.00.

Compound `COc1cc(-c2oc3cc(O)cc(O)c3c(=O)c2OC2OC(COC3OCC(O)C(O)C3O)C(O)C(O)C2OC(C)=O)ccc1O` (stereo not shown) [Compound 1, mongolinodoside A] had a pIC50 in experiment [1] of less than 4.00.

Consider `COc1cc(-c2oc3cc(O)cc(O)c3c(=O)c2OC2OC(CO)C(O)C(O)C2OC2OC(C)C(O)C(O)C2O)ccc1O` (stereo not shown) [Compound 3, calendoflavoside], for which, in experiment [1], the pIC50 was less than 4.00.

As to `O=c1c(OC2OC(CO)C(O)C(O)C2OC2OCC(O)C(O)C2O)c(-c2ccc(O)cc2)oc2cc(O)cc(O)c12` (stereo not shown) [Compound 4, leucoside], in experiment [1], the pIC50 was less than 4.00.

Take `O=c1c(OC2OC(CO)C(O)C(O)C2OC2OC(CO)C(O)C(O)C2O)c(-c2ccc(O)c(O)c2)oc2cc(O)cc(O)c12` (stereo not shown) [Compound 2, quercetin 3-sophoroside]: in experiment [1], the pIC50 is 4.46 and the DPPH scavenging activity result is “over 90%”.

On to `COc1cc(-c2oc3c(OC)c(O)cc(O)c3c(=O)c2O)ccc1O` [Compound 14, limocitrin], for which, in experiment [1], the negative-log IC50 (pIC50) was 4.28 and the DPPH scavenging activity entry is given as “over 90%”.

As to `O=c1c(O[C@@H]2O[C@H](CO)[C@@H](O)[C@H](O)[C@H]2O)c(-c2ccc(O)c(O)c2)oc2cc(O)cc(O)c12` [Compound 8, isoquercetin], in experiment [1], the pIC50 was 4.55 and the DPPH scavenging activity entry was “over 90%”.

As for `O=C1C[C@@H](c2ccc(O)cc2)Oc2cc(O)cc(O)c21` [Compound 17, naringenin], the pIC50 in experiment [1] was less than 4.00.

The compound `COc1cc(-c2oc3cc(O)cc(O)c3c(=O)c2OC2OC(COC3OCC(O)C(O)C3O)C(O)C(O)C2O)ccc1O` [Compound 6, Isorhamnetin 3-O-β-D-xylopyranosyl (1→6)-β-D-glucopyranoside] had a negative-log IC50 (pIC50) in experiment [1] of less than 4.00.

For `COc1cc(-c2oc3cc(O)cc(O)c3c(=O)c2O)ccc1O` [Compound 13, isorhamnetin], in experiment [1], the pIC50 is 4.59 and the DPPH scavenging activity entry is given as “over 90%”.

For the compound `O=c1c(O)c(-c2ccc(O)cc2)oc2cc(O)cc(O)c12` [Compound 12, kaempferol], in experiment [1], the negative-log IC50 (pIC50) is 4.37 and the DPPH scavenging activity result is reported as “over 90%”. Further, the inhibition at 100 µM at mushroom tyrosinase was greater than 70%.
